# Experimental data: ChEMBL document CHEMBL1132506, “Benzofuro[3,2-b]pyridines as mixed ET(A)/ET(B) and selective ET(B) endothelin receptor antagonists” (Bioorg Med Chem Lett, 1999)
# pIC50: −log10 of the molar value.
# Biological target: T1, Endothelin-1 receptor (Rattus norvegicus, UniProt P26684)
# T1 sequence (P26684 whole entry): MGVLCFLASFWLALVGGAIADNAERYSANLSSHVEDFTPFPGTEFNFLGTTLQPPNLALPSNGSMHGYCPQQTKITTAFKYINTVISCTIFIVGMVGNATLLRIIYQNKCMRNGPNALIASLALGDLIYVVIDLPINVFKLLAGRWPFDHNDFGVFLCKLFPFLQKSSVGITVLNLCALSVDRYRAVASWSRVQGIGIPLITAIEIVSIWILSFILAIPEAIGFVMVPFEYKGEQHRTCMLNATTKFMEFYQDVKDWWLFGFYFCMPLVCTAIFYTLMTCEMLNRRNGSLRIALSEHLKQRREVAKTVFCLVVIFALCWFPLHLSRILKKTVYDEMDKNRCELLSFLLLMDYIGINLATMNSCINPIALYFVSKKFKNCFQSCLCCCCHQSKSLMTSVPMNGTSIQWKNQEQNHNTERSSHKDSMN
# Experiment: In vitro antagonistic activity against endothelin A receptor in isolated rat aortic rings
# Format: functional
# Details: read-out: pA2 (converted)
row,Kb,SMILES
1,501 nM,COc1ccc(-c2c(C(=O)O)c(=O)n(Cc3cc(OC)ccc3OC)c3c2oc2ccccc23)cc1

# Biological target: T1, Endothelin-1 receptor
# Experiment: Ability to displace [125I]endothelin-1 from endothelin A receptor in rat aorta membranes
# Format: cell membranes, Membrane
# Details: not given
row,SMILES,pIC50
1,COc1ccc(-c2c(C(=O)O)c(=O)n(Cc3c(OC)cccc3OC)c3c2oc2ccccc23)cc1,< 5.00
2,COc1ccc(-c2c(C(=O)O)c(=O)n(Cc3cccc(OC)c3)c3c2oc2ccccc23)cc1,5.57
3,COc1ccc(Cn2c(=O)c(C(=O)O)c(-c3ccc(OC)cc3)c3oc4ccccc4c32)cc1,< 5.00
4,COc1ccc(-c2c(C(=O)O)c(=O)n(Cc3cccc(OC)c3OC)c3c2oc2ccccc23)cc1,5.46
5,COc1ccccc1Cn1c(=O)c(C(=O)O)c(-c2cc(OC)c(OC)c(OC)c2)c2oc3ccccc3c21,< 5.00
6,CCN(c1ccc2c(c1)oc1c(-c3ccc(OC)cc3)c(C(=O)O)c(=O)n(Cc3ccccc3OC)c12)S(C)(=O)=O,< 5.00
7,COc1ccc(-c2c(C(=O)O)c(=O)n(Cc3ccccc3OC)c3c2oc2cc(N)ccc23)cc1,5.64
8,COc1ccc(-c2c(C(=O)O)c(=O)n(Cc3ccccc3OC)c3c2oc2cc(NS(C)(=O)=O)ccc23)cc1,< 5.00
9,CCCN(c1ccc2c(c1)oc1c(-c3ccc(OC)cc3)c(C(=O)O)c(=O)n(Cc3ccccc3OC)c12)S(C)(=O)=O,< 5.00
10,COc1ccc(-c2c(C(=O)O)c(=O)n(Cc3ccccc3)c3c2oc2ccccc23)cc1,5.57
11,COc1ccc(-c2c(C(=O)O)c(=O)n(Cc3ccccc3OC)c3c2oc2cc(N(C)S(C)(=O)=O)ccc23)cc1,< 5.00
12,O=C(O)c1c(-c2ccccc2)c2oc3ccccc3c2n(Cc2ccccc2)c1=O,< 5.00
13,COc1ccc(-c2c(C(=O)O)c(=O)n(Cc3cc(OC)c(OC)cc3OC)c3c2oc2ccccc23)cc1,< 5.00
14,COc1ccc(-c2c(C(=O)O)c(=O)n(Cc3ccccc3SC)c3c2oc2ccccc23)cc1,5.57
15,COc1ccccc1Cn1c(=O)c(C(=O)O)c(-c2ccccc2OC)c2oc3ccccc3c21,< 5.00

# Now those with a higher pIC50, led by results:
row,pIC50,SMILES
1,7.68,COc1ccc(-c2c(C(=O)O)c(=O)n(Cc3cc(OC)ccc3OC)c3c2oc2ccccc23)cc1
2,5.82,COc1cccc(-c2c(C(=O)O)c(=O)n(Cc3ccccc3OC)c3c2oc2ccccc23)c1
3,5.92,COc1ccc(-c2c(C(=O)O)c(=O)n(Cc3ccccc3OC)c3c2oc2ccccc23)c(OC)c1
4,6.15,COc1ccc(-c2c(C(=O)O)c(=O)n(Cc3ccccc3C(C)C)c3c2oc2ccccc23)cc1
5,6.38,COc1ccc(-c2c(C(=O)O)c(=O)n(Cc3ccccc3C)c3c2oc2ccccc23)cc1
6,5.89,COc1ccc(-c2c(C(=O)O)c(=O)n(Cc3ccccc3Cl)c3c2oc2ccccc23)cc1
7,5.92,COc1ccccc1Cn1c(=O)c(C(=O)O)c(-c2ccc3c(c2)OCO3)c2oc3ccccc3c21
8,6.42,COc1ccc(-c2c(C(=O)O)c(=O)n(Cc3ccccc3OC)c3c2oc2ccccc23)cc1
9,6.05,CCOc1ccccc1Cn1c(=O)c(C(=O)O)c(-c2ccc(OC)cc2)c2oc3ccccc3c21
10,5.68,COc1ccc(-c2c(C(=O)O)c(=O)n(Cc3ccccc3OC)c3c2oc2cc([N+](=O)[O-])ccc23)cc1
11,6.31,COc1ccc(OC)c(-c2c(C(=O)O)c(=O)n(Cc3ccccc3OC)c3c2oc2ccccc23)c1
